Source: the NIST ThermoML archive (doi:10.1021/je050367p)

How the values were obtained:
[1] = refractive index (Na D-line) (dimensionless); xn = mol fraction of the nth substance listed; settings: 100.8 kPa, Liquid, Standard Abbe refractometry
[2] = xn = mol fraction of the nth substance listed; settings: Liquid; for viscosity: Capillary tube (Ostwald / Ubbelohde) method

CC(C)OC(C)C [diisopropyl ether] + CC(C)CC(C)(C)C
refractive index, [1]
Settings	288.15 K	298.15 K	308.15 K
x1 = 0.05	1.39293	1.38786	1.38277
x1 = 0.1	1.39183	1.38672	1.38159
x1 = 0.15	1.39072	1.38557	1.38042
x1 = 0.2	1.3896	1.38443	1.37924
x1 = 0.25	1.38846	1.38326	1.37803
x1 = 0.3	1.38733	1.38209	1.37682
x1 = 0.35	1.38619	1.38092	1.37561
x1 = 0.4	1.38504	1.37974	1.3744
x1 = 0.45	1.3839	1.37856	1.37317
x1 = 0.5	1.38274	1.37737	1.37195
x1 = 0.55	1.38158	1.37618	1.37072
x1 = 0.6	1.38042	1.37499	1.36949
x1 = 0.65	1.37926	1.3738	1.36826
x1 = 0.7	1.37809	1.37259	1.36703
x1 = 0.75	1.37691	1.37138	1.36578
x1 = 0.8	1.37573	1.37016	1.36452
x1 = 0.85	1.37456	1.36896	1.36327
x1 = 0.9	1.37337	1.36774	1.36201
x1 = 0.9499	1.37217	1.3665	1.36073
x1 = 1	1.37093	1.36524	1.35944

[2], 100.8 kPa
Settings	mass density, 288.15 K [kg/m3]	mass density, 298.15 K [kg/m3]	mass density, 308.15 K [kg/m3]	viscosity, 288.15 K [mPa·s]	viscosity, 298.15 K [mPa·s]	viscosity, 308.15 K [mPa·s]
x1 = 0.05	697.2	688.86	680.44	0.523	0.468	0.422
x1 = 0.1	698.46	690.03	681.52	0.511	0.456	0.412
x1 = 0.15	699.73	691.23	682.62	0.498	0.445	0.402
x1 = 0.2	701.06	692.45	683.75	0.486	0.435	0.393
x1 = 0.25	702.44	693.75	684.95	0.474	0.425	0.384
x1 = 0.3	703.86	695.08	686.17	0.463	0.415	0.375
x1 = 0.35	705.33	696.43	687.42	0.452	0.406	0.367
x1 = 0.4	706.84	697.84	688.72	0.442	0.397	0.359
x1 = 0.45	708.37	699.26	690.03	0.432	0.388	0.351
x1 = 0.5	709.97	700.76	691.42	0.423	0.38	0.343
x1 = 0.55	711.64	702.32	692.86	0.414	0.372	0.336
x1 = 0.6	713.36	703.94	694.35	0.405	0.364	0.329
x1 = 0.65	715.15	705.61	695.92	0.397	0.357	0.323
x1 = 0.7	716.97	707.32	697.5	0.389	0.35	0.316
x1 = 0.75	718.85	709.08	699.14	0.382	0.343	0.31
x1 = 0.8	720.8	710.9	700.83	0.375	0.337	0.305
x1 = 0.85	722.8	712.78	702.59	0.368	0.33	0.299
x1 = 0.9	724.9	714.75	704.42	0.361	0.325	0.294
x1 = 0.9499	727	716.73	706.28	0.354	0.319	0.288
x1 = 1	729.09	718.7	708.12	0.348	0.313	0.283

CC(C)OC(C)C [diisopropyl ether] + CCO
refractive index, [1]
Settings	288.15 K	298.15 K	308.15 K
x1 = 0.05	1.36501	1.36077	1.35646
x1 = 0.1	1.36653	1.3621	1.35763
x1 = 0.15	1.36768	1.3631	1.3585
x1 = 0.2	1.3686	1.36392	1.35923
x1 = 0.25	1.36935	1.36456	1.35977
x1 = 0.3	1.36998	1.3651	1.36021
x1 = 0.35	1.37047	1.3655	1.36052
x1 = 0.4	1.37086	1.36582	1.36077
x1 = 0.45	1.37117	1.36608	1.36093
x1 = 0.5	1.3714	1.3663	1.36103
x1 = 0.55	1.37159	1.36642	1.36107
x1 = 0.6	1.37174	1.36648	1.36109
x1 = 0.65	1.37183	1.36649	1.36108
x1 = 0.7	1.37187	1.36646	1.36098
x1 = 0.7499	1.37187	1.36638	1.36085
x1 = 0.8	1.37181	1.36627	1.36068
x1 = 0.85	1.37167	1.36611	1.36044
x1 = 0.9	1.3715	1.36588	1.36019
x1 = 0.95	1.3712	1.36558	1.35986
x1 = 1	1.37093	1.36524	1.35944

[2], 100.5 kPa
Settings	mass density, 288.15 K [kg/m3]	mass density, 298.15 K [kg/m3]	mass density, 308.15 K [kg/m3]	viscosity, 288.15 K [mPa·s]	viscosity, 298.15 K [mPa·s]	viscosity, 308.15 K [mPa·s]
x1 = 0.05	788.65	779.96	771.13	1.176	0.975	0.814
x1 = 0.1	783.6	774.78	765.84	1.046	0.875	0.736
x1 = 0.15	779.02	770.05	760.98	0.946	0.793	0.67
x1 = 0.2	774.89	765.79	756.58	0.85	0.719	0.612
x1 = 0.25	770.69	761.45	752.16	0.771	0.656	0.562
x1 = 0.3	766.92	757.63	748.12	0.705	0.603	0.52
x1 = 0.35	763.36	753.93	744.32	0.648	0.558	0.484
x1 = 0.4	760.02	750.47	740.76	0.599	0.519	0.453
x1 = 0.45	756.93	747.28	737.5	0.558	0.486	0.426
x1 = 0.5	753.87	744.13	734.3	0.523	0.458	0.403
x1 = 0.55	750.98	741.18	731.25	0.493	0.432	0.383
x1 = 0.6	748.29	738.39	728.37	0.468	0.412	0.365
x1 = 0.65	745.73	735.73	725.59	0.444	0.392	0.35
x1 = 0.7	743.19	733.1	722.86	0.423	0.376	0.336
x1 = 0.7499	740.73	730.59	720.23	0.407	0.362	0.324
x1 = 0.8	738.4	728.19	717.79	0.392	0.35	0.314
x1 = 0.85	735.94	725.76	715.31	0.378	0.339	0.305
x1 = 0.9	733.6	723.36	712.89	0.367	0.329	0.297
x1 = 0.95	731.15	720.98	710.53	0.357	0.32	0.289
x1 = 1	729.09	718.7	708.12	0.348	0.313	0.283
